Data reported in paper PMC9481151, “Discovery of new symmetrical and asymmetrical nitrile-containing 1,4-dihydropyridine derivatives as dual kinases and P-glycoprotein inhibitors: synthesis, in vitro assays, and in silico studies” (Journal of Enzyme Inhibition and Medicinal Chemistry, 2022).

Assays:
HCT-116 cells = experiment: In vitro cytotoxicity; conditions: Homo sapiens, HCT-116, read-out: Cytotoxicity IC50, HCT-116
HCT-116/ADR cells = experiment: cells; conditions: Homo sapiens, HCT-116, read-out: Cytotoxicity IC50, HCT-116/ADR
[1] = test system: drug-resistant HCT-116/ADR cells; experiment: Potentiation of DOX cytotoxicity (reversal DOX effect, P-gp modulation); format: cell-based, human; conditions: IC50 (DOX) without modulator / IC50 (DOX) with modulator
BTK = BTK (Homo sapiens, UniProt Q06187); experiment: BTK inhibitory activity; format: biochemical; conditions: (IC50 lapatinib/IC50 Compound)*100
Sequence of BTK (Q06187 whole entry): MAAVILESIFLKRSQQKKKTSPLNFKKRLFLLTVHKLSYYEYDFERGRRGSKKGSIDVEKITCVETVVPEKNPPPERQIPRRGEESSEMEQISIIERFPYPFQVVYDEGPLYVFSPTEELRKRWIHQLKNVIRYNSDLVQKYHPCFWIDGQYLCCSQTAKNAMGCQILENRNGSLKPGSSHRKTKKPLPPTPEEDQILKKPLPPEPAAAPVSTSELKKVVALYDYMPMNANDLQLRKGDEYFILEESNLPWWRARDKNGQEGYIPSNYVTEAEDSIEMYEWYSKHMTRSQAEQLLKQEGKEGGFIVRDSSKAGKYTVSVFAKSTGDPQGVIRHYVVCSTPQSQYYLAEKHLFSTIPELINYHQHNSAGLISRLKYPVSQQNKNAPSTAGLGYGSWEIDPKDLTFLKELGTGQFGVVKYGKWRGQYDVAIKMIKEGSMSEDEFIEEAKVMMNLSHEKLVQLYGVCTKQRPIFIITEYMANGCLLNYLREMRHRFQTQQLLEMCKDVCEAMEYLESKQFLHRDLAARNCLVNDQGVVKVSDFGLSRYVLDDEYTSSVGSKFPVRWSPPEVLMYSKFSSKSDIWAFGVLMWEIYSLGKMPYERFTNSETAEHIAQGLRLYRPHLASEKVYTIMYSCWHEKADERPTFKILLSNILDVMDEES

HER-2 = HER-2 (Homo sapiens, UniProt P04626); experiment: HER-2 kinase inhibitory activity; format: biochemical; conditions: (IC50 lapatinib/IC50 Compound)*100
Sequence of HER-2 (P04626 23-1255): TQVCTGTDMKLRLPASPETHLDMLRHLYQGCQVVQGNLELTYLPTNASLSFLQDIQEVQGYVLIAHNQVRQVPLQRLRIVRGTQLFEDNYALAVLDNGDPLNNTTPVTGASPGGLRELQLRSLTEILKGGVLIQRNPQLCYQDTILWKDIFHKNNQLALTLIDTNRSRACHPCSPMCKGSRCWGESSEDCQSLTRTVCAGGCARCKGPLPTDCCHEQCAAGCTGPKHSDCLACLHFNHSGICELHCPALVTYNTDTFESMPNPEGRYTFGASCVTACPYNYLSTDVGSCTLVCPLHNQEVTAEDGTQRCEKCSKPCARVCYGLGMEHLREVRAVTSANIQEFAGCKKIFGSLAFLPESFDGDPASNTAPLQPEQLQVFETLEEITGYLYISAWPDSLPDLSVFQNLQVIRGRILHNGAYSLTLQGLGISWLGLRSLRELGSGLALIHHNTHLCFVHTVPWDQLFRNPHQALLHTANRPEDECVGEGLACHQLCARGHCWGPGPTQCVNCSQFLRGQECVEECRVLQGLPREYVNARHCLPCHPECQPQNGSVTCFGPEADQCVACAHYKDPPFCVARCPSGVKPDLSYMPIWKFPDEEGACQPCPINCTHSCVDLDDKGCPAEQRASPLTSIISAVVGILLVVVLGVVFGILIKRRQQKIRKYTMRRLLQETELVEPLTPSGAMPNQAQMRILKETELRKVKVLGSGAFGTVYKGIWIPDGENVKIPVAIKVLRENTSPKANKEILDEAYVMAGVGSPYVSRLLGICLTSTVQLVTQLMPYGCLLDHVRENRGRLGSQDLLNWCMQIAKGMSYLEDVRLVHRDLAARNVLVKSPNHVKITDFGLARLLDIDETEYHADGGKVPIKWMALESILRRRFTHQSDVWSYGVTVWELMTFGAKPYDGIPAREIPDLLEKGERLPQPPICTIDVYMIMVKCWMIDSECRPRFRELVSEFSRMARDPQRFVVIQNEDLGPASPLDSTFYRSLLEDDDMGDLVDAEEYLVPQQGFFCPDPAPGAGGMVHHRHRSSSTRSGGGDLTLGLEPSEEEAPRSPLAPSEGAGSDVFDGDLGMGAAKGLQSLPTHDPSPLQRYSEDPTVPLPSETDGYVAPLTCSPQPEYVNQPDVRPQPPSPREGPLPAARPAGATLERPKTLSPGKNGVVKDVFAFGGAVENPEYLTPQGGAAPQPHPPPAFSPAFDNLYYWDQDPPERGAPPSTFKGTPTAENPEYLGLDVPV

Row | BTK Potency (BTK) [%] | HER-2 Potency (HER-2) [%] | SMILES | IC50 (HCT-116 cells) [µM] | IC50 (HCT-116/ADR cells) [µM] | RF (reversal fold activity) [1]
1 |  |  | COc1cccc2c1C(=O)c1c(O)c3c(c(O)c1C2=O)C[C@@](O)(C(=O)CO)C[C@@H]3O[C@H]1C[C@H](N)[C@H](O)[C@H](C)O1 [DOX, Doxorubicin, reference compound] | 1.15 ± 0.43 | 16.91 ± 0.14 | 1
2 | 100.0 | 100.0 | CS(=O)(=O)CCNCc1ccc(-c2ccc3ncnc(Nc4ccc(OCc5cccc(F)c5)c(Cl)c4)c3c2)o1 [Lapatinib, reference compound] |  |  | 
